Source: patent publication US10287305B2, “Substituted piperidine compound and use thereof” (Takeda Pharmaceutical Company Limited, priority 2016, dated 2019)

Target: human orexin type 2 receptor (hOX2R) (Homo sapiens (Human), UniProt O43614)
Assay: Measurement of orexin type 2 receptor agonist activity (Experimental Example 2-1, FLIPR TETRA, intracellular Ca2+)
Format: cell-based
Details: CHO dhfr- cells expressing hOX2R; for Emax at 30 µM: value at 30 uM concentration, orexin B as full agonist = 100%; for Emax: read-out: Emax (%)
[1] = agonist activity, 10 nM human orexin B = 100%

human orexin type 2 receptor (hOX2R), sequence (O43614 whole entry): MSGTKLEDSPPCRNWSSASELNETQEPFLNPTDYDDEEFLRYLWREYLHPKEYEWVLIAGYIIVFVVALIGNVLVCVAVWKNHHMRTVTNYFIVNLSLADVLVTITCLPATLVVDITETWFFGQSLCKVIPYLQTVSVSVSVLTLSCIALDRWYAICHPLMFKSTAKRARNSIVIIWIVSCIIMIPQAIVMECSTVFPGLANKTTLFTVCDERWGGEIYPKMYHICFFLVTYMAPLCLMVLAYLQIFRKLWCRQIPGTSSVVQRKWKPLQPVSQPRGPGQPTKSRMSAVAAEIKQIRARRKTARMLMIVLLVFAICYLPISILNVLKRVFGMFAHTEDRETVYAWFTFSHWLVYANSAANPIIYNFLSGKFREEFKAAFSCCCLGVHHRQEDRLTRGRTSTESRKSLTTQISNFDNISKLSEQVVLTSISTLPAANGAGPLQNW

EC50 [1]	Emax at 30 µM	EC50 (FLIPR TETRA, Fluo-4AM)	Emax (FLIPR TETRA, Fluo-4AM)	Emax (%) (FLIPR TETRA, Fluo-4AM)	SMILES
1000 nM	91%				CCCS(=O)(=O)N[C@H]1CCCN(C(C)=O)[C@H]1CO[C@H]1CC[C@@H](C(C)C)CC1 (relative stereo) [Example 77, N-(cis-1-acetyl-2-(((cis-4-isopropylcyclohexyl)oxy)methyl)piperidin-3-yl)propane-1-sulfonamide]
59 nM	93%				CCNC(=O)N1CCC[C@H](NS(C)(=O)=O)[C@@H]1CO[C@H]1C[C@@H](c2ccccc2)C1 (relative stereo) [Example 113, cis-N-ethyl-3-((methylsulfonyl)amino)-2-(((cis-3-phenylcyclobutyl)oxy)methyl)piperidine-1-carboxamide]
		940 nM	93%		CS(=O)(=O)N[C@H]1CCCN(C(=O)C2CCCCC2)[C@H]1COC1CCN(c2ncccn2)CC1 (relative stereo) [Example 208, N-(cis-1-(cyclohexylcarbonyl)-2-(((1-(pyrimidin-2-yl)piperidin-4-yl)oxy)methyl)piperidin-3-yl)methanesulfonamide]
		32 nM	98%		CCc1ccccc1[C@H]1CC[C@@H](OC[C@H]2[C@@H](NS(C)(=O)=O)CCCN2C(C)=O)CC1 [Example 312, N-((2R,3S)-1-acetyl-2-(((cis-4-(2-ethylphenyl)cyclohexyl)oxy)methyl)-piperidin-3-yl)methanesulfonamide]
	88%				CC(=O)CCC(=O)N1CCC[C@H](NS(C)(=O)=O)[C@@H]1CO[C@H]1CC[C@@H](C(C)C)CC1 (relative stereo) [Example 75, N-(cis-2-(((cis-4-isopropylcyclohexyl)oxy)methyl)-1-(4-oxopentanoyl)piperidin-3-yl)methanesulfonamide]
660 nM	98%				CC(=O)N1CCC[C@H](NS(=O)(=O)C(F)(F)F)[C@@H]1CO[C@H]1CC[C@@H](C(C)C)CC1 (relative stereo) [Example 80, N-(cis-1-acetyl-2-(((cis-4-isopropylcyclohexyl)oxy)methyl)piperidin-3-yl)-1,1,1-trifluoromethanesulfonamide]
		4000 nM	96%		CS(=O)(=O)N[C@H]1CCCN[C@H]1CO[C@H]1CC[C@@H](c2ccc(F)cc2F)CC1 (relative stereo) [Example 142, N-(cis-2-(((cis-4-(2,4-difluorophenyl)cyclohexyl)oxy)methyl)piperidin-3-yl)methanesulfonamide]
4300 nM	83%				CC(=O)N1CCC[C@H](NS(C)(=O)=O)[C@@H]1CO[C@H]1CC[C@@H](C2CCCCC2)CC1 [Example 71, N-(cis-1-acetyl-2-(((1s,4s)-1,1′-bi(cyclohexyl)-4-yloxy)methyl)piperidin-3-yl)methanesulfonamide]
1.2 nM	101%				CNC(=O)N1CCC[C@H](NS(C)(=O)=O)[C@@H]1CO[C@H]1CC[C@@H](C(C)C)CC1 [Example 102, (2R,3S)-2-(((cis-4-isopropylcyclohexyl)oxy)methyl)-N-methyl-3-((methylsulfonyl)amino)piperidine-1-carboxamide]
30 nM	107%				COCC(=O)N1CCC[C@H](NS(C)(=O)=O)[C@@H]1CO[C@H]1CC[C@@H](c2ccccc2)CC1 (relative stereo) [Example 119, N-(cis-1-(methoxyacetyl)-2-(((cis-4-phenylcyclohexyl)oxy)methyl)piperidin-3-yl)methanesulfonamide]
		2100 nM	76%		CC(=O)N1CCC[C@H](NS(C)(=O)=O)[C@@H]1CO[C@H]1CC[C@@H](c2cccc(OC(F)(F)F)c2)CC1 (relative stereo) [Example 297, N-(cis-1-acetyl-2-(((cis-4-(3-(trifluoromethoxy)phenyl)cyclohexyl)oxy)methyl)piperidin-3-yl)methanesulfonamide]
1200 nM	90%				CS(=O)(=O)N[C@H]1CCCN[C@H]1CO[C@H]1CC[C@@H](c2ccccc2C(F)(F)F)CC1 [Example 23, N-((2R,3S)-2-(((cis-4-(2-(trifluoromethyl)phenyl)cyclohexyl)oxy)methyl)piperidin-3-yl)methanesulfonamide]
			95%		COC(=O)N1CCC[C@H](NS(C)(=O)=O)[C@@H]1CO[C@H]1CC[C@@H](c2cccc(F)c2)CC1 [Example 200, methyl (2R,3S)-2-(((cis-4-(3-fluorophenyl)cyclohexyl)oxy)methyl)-3-((methylsulfonyl)amino)piperidine-1-carboxylate]
3500 nM	79%				CC(=O)N1CCC[C@H](NS(C)(=O)=O)[C@@H]1CO[C@H]1C[C@@H](c2ccccc2)C1 (relative stereo) [Example 114, N-(cis-1-acetyl-2-(((cis-3-phenylcyclobutyl)oxy)methyl)-piperidin-3-yl)methanesulfonamidea]
		130 nM	95%		CS(=O)(=O)N[C@H]1CCCN(C(=O)C2CC2)[C@H]1CO[C@H]1CC[C@@H](c2ccccc2OC(F)(F)F)CC1 (relative stereo) [Example 294, N-(cis-1-(cyclopropylcarbonyl)-2-(((cis-4-(2-(trifluoromethoxy)phenyl)cyclohexyl)oxy)methyl)piperidin-3-yl)methanesulfonamide]
		810 nM	106%		CC(=O)N1CCC[C@H](NS(C)(=O)=O)[C@@H]1CO[C@H]1CC[C@@H](c2ccc(F)cc2F)CC1 (relative stereo) [Example 145, N-(cis-1-acetyl-2-(((cis-4-(2,4-difluorophenyl)cyclohexyl)oxy)methyl)piperidin-3-yl)methanesulfonamide]
		96 nM	95%		CC(=O)N1CCC[C@H](NS(C)(=O)=O)[C@@H]1CO[C@H]1CC[C@@H](c2ccccc2C(F)F)CC1 [Example 323, N-((2R,3S)-1-acetyl-2-(((cis-4-(2-(difluoromethyl)phenyl)cyclohexyl)-oxy)methyl)piperidin-3-yl)methanesulfonamide]
		1600 nM	98%		CC(C)OC(=O)N1CCC[C@H](NS(C)(=O)=O)[C@@H]1CO[C@H]1C[C@@H](c2ccccc2)C1 (relative stereo) [Example 307, isopropyl cis-3-((methylsulfonyl)mino)-2-(((cis-3-phenylcyclobutyl)oxy)methyl)-piperidine-1-carboxylate]
		53 nM		106%	CS(=O)(=O)N[C@H]1CCCN(C(=O)OCC(F)(F)F)[C@H]1COC1CCN(c2ncccn2)CC1 [Example 305, 2,2,2-trifluoroethyl (2R,3S)-3-((methylsulfonyl)amino)-2-(((1-(pyrimidin-2-yl)piperidin-4-yl)oxy)methyl)piperidine-1-carboxylate]
310 nM	108%				COc1ccccc1[C@H]1CC[C@@H](OC[C@@H]2NCCC[C@@H]2NS(C)(=O)=O)CC1 [Example 27, N-((2R,3S)-2-(((cis-4-(2-methoxyphenyl)cyclohexyl)oxy)methyl)piperidin-3-yl)methanesulfonamide]
520 nM	96%				CS(=O)(=O)N[C@H]1CCCN[C@H]1CO[C@H]1CC[C@@H](c2cccc(F)c2F)CC1 [Example 18, N-((2R,3S)-2-(((cis-4-(2,3-difluorophenyl)cyclohexyl)oxy)methyl)piperidin-3-yl)methanesulfonamide]
